Where “and” joins values, the source holds several entries; their conditions need not be identical. Equal entries are not always repeated.
How the values were obtained:
[1] = molecular target: intracellular type PAF receptor (rat brain microsomal preparations) (Rattus norvegicus, UniProt P46002); experiment: Competition for 3H-PAF binding to rat brain cortex microsomal membranes; settings: rat brain cortex microsomal preparation
Experimental: (§1) Binding studies were performed on subcellular fractions of tissues obtained from rat brain cortex, according to procedures described in V. Marcheselli et al., “Distinct platelet-activating factor binding sites in synaptic endings and in intracellular membranes of rat cerebral cortex,” J. biol. Chem., vol. 265, pp. 9140-9145 (1990). Freshly dissected brain tissues were homogenized in ice-cold buffer (50 mM Tris-HCl, 2 mM EGTA, 5 mM PMSF, 250 mM sucrose, 7.4 pH). Subcellular fractions were obtained by differential centrifugation. The microsomal fraction was sedimented after 100,000×g for 1 hour centrifugation. In addition, three cell lines from Chinese hamster ovary (CHO) with varying expression of PAF receptors, CHO-A, CHO-B, and CHO-C cells (from Dr. Takao Shiizu, University of Tokyo, Tokyo, Japan) were cultured to the fourth-passage cells. These cells were cultured to confluence, then detached from their culturing flasks, and pelleted by rapid centrifugation (3,000 rpm, 10 min). Cellular pellets were homogenized in ice-cold buffer as described above. Freshly obtained microsomal fractions or CHO cellular homogenates were utilized for saturation, displacement, and competition studies using ^3H-PAF as the hot ligand, unlabeled-PAF to detect non-specific binding, and a LAU-0900 series compound to displace by competition ^3H-PAF bound to a receptor.

[2] = molecular target: T1, cell-surface-type PAF receptor over-expressed in CHO-B cells (Cavia porcellus, UniProt P21556); experiment: Competition for 3H-PAF binding to CHO-B cell homogenates
T1 construct: expressed in transfected cells; host or cells: Chinese hamster ovary cells: CHO-B (high expression) and CHO-A (mild expression), used as cell homogenates
Experimental: as §1
(§2) See B. Liu et al., “Implication of protein kinase C alpha in PAF-stimulated phospholipase D Activation in Chinese hamster ovary (CHO) cells expressing PAF receptor,” Biochem. Biophys. Res. Commun., vol.214, pp.418-423 (1995). […] Both the constants of inhibition (KI) and 50% of inhibitory activity (IC50) were significant at a low concentration of LAU-0903.

[3] = molecular target: T2, PAF receptor in CHO-A cells (moderately exp PAF-R) (Cavia porcellus, UniProt P21556); experiment: Competition for 3H-PAF binding to CHO-A cell homogenates
T2 construct: expressed in transfected cells; host or cells: Chinese hamster ovary cells: CHO-B (high expression) and CHO-A (mild expression), used as cell homogenates
Experimental: Binding studies were performed on subcellular fractions of tissues obtained from rat brain cortex, according to procedures described in V. Marcheselli et al., “Distinct platelet-activating factor binding sites in synaptic endings and in intracellular membranes of rat cerebral cortex,” J. biol. Chem., vol. 265, pp. 9140-9145 (1990). Freshly dissected brain tissues were homogenized in ice-cold buffer (50 mM Tris-HCl, 2 mM EGTA, 5 mM PMSF, 250 mM sucrose, 7.4 pH). Subcellular fractions were obtained by differential centrifugation. The microsomal fraction was sedimented after 100,000×g for 1 hour centrifugation. In addition, three cell lines from Chinese hamster ovary (CHO) with varying expression of PAF receptors, CHO-A, CHO-B, and CHO-C cells (from Dr. Takao Shiizu, University of Tokyo, Tokyo, Japan) were cultured to the fourth-passage cells. These cells were cultured to confluence, then detached from their culturing flasks, and pelleted by rapid centrifugation (3,000 rpm, 10 min). Cellular pellets were homogenized in ice-cold buffer as described above. Freshly obtained microsomal fractions or CHO cellular homogenates were utilized for saturation, displacement, and competition studies using ^3H-PAF as the hot ligand, unlabeled-PAF to detect non-specific binding, and a LAU-0900 series compound to displace by competition ^3H-PAF bound to a receptor. […]

[4] = tested on: CHO-C cells (do not exp PAF-R); experiment: Competition for 3H-PAF binding to CHO-C cell homogenates
Experimental: as §1, §2

human COX-2 promoter [5] = experiment: PAF-induced COX-2 promoter-luciferase transcription in CV-1 cells; type: cell-based; settings: 100 nM compound, 100 nM PAF
Experimental: (§3) To test the ability of LAU-0900 series compounds to inhibit COX-2 expression, a kidney cell line was transiently transfected with the 830-base-pair human COX-2 promoter construct (proximal to the transcription start site) fused to the luciferase gene as a reporter as described below.
(§4) Transfection of CV-1 cells with human COX-2promoterfused with LUC: C V-1 Cells (African green monkey kidney cell line, ATCC # CCL-17) were grown in DMEM-F12 (GIBCO-BRL, Rockville, Md.) supplemented with 10% FBS (fetal bovine serum) in 6-well plates. At 80% confluence, the cells were transfected with 10 μg human COX-2 promoter-LUC construct (containing 830 base pairs of the human COX-2 promoter (donated by Dr. Stephen Prescot, Huntsman Cancer Institute, Salt Lake City, Utah) using a liposomal transfection reagent (DOTAP, Roche Diagnostics, Gmbh, Mannheim, Germany). Promoterless β-galactosidase construct (Promega, Madison, Wis.) was co-transfected to assess transfection efficiency. Three hours after transfection at 37° C., the medium was removed, and the cells were washed with phonsphate-buffered saline solution, pH 7.2 (PBS; Gibco-BRL, Rockville Md. The plates were further incubated at 37° C. in complete medium DMEM-F12 with 10% FBS for about 8-10 hr. Before the addition of the inducers of COX-2, PAF (100 nM) or IL-1β (10 ng/ml), the CV-1-transfected cells were serum-starved for 8 hr at 37° C. After the addition of the inducers, the cells were incubated for 8-10 hr at 37° C. Then the medium was removed, the cells were washed with PBS, harvested, and frozen at −80° C. until used for assays.
(§5) To test the effectiveness of the LAU-0900 series compounds, the transfected cells were treated for 1 hr with 100 nM of various LAU-0900 series compounds before the addition of the inducers (either PAF or IL-1β, and the LAU-0900 compound remained in the medium throughout the incubation period.
(§6) Luciferase assay of transfected CV-1 cells: Frozen cells were homogenized in 300 μl luciferase assay buffer (“ALL”, Analytical Luminescence Laboratory, San Diego, Calif.), and cellular debris was collected as a pellet by centrifugation at 2800×g for 20 min at 4° C. Supernatants (20-30 μl) were normalized to 1 μg/ml of total protein content, and were mixed with 70-80 μl ALL buffer. Reactions were initiated by injection of 100 μl of 1 mM luciferin (Sigma Chemical Co., St. Louis, Mo.). The relative light units were determined by using an ALL luminometer that recorded over 20-second intervals.

human COX-2 promoter [6] = experiment: IL-1β-induced COX-2 promoter-luciferase transcription in CV-1 cells; type: cell-based; settings: 100 nM compound, 10 nM IL-1β
Experimental: as §3, §4, §5, §6

COX-2 mRNA = COX-2 mRNA expression after cryogenic injury (vasogenic cerebral edema), Northern blot; type: in vivo, Sprague-Dawley rats; settings: rat
Experimental: Brain COX-2 gene expression is known to be enhanced as a result of injury as well as by seizures (Marcheselli and Bazan, 1996), and PAF receptors are involved in COX-2 expression (Bazan et al, 1994). To further test the LAU-0900 series compounds as PAF antagonists, the compounds were tested in an in vivo model for the potential blocking of injury-induced COX-2 induction. Adult Sprague-Dawley rats, 175 to 250 g body weight, were purchased from a commercial breeder (Charles River Laboratories, Wilmington, Mass.). One group of four rats received an intra-cerebroventricular injection of LAU-0903 (10 mg/kg in DMSO as a vehicle), 15 min before the generation of cerebral edema. Another group of four rats received an intraperitoneal injection of desxmethasone every 8 hr for a period of 24 hr prior to injury. Animals were immobilized by ether anesthesia, and vasogenic cerebral edema was generated by the application of a liquid nitrogen-cooled probe for 1 min on the parietal region of the skull. The rats were allowed to recover for either 2 or 6 hr before being decapitated to sample the brain. Total brain tissues were obtained, and total-RNA was extracted. The RNA was then assayed by Northern blot analysis for COX-2 mRNA. […] Autoradiography or phosphorimage quantification was performed.

[7] = Evans Blue accumulation in brain cortex in vasogenic cerebral edema; type: in vivo, rat; settings: LAU-0903 30 μg/kg intra-ventricularly 15 min before injury; dexamethasone 6.2 μg/kg i.p. every 8 hr for 24 hr; 2 hr and 12 hr after injury
[8] = Middle cerebral artery occlusion (MCA-O) stroke model, infarct volume by TTC; type: in vivo, C57BL/6 mice; settings: 30 mg/kg 1 hr after reperfusion following 1 hr of MCA-O
[9] = MCA-O with 21 days reperfusion, Cresil-Violet histology; type: in vivo, C57-bl/6 mice; settings: 30 mg/kg i.p. once 1 hr after onset of reperfusion
Experimental: In a second group of experiments, C57-bl/6 mice were treated with either a sham procedure, or with 1 hr with MCA-O followed by a reperfusion period of 21 days. Cresil-violet staining was used to assess brain damage in brain slices obtained as above. […] (Data not shown.). […] (Data not shown).
In a third set of experiments, the MCA-O treated mice were injected once with the LAU-0900 series compounds (LAU-0901, LAU-0904, and LAU-0911; at 30 mg/kg) or vehicle 1 hr after the onset of reperfusion. The LAU-0900 compounds were solubilized in 45% 2-hydroxypropyl-β-cyclodextrine (Sigma Chemical Co.), and delivered intraperitoneally. The mice were reperfused for 21 days, and killed. Coronal sections of mouse brains were processed for histology, and stained with Cresil-Violet. Sections from individual animals were analyzed, with pictures of the right side (infarcted) of the brain compared to the left side, which show almost no damage.
(Data not shown). […] Almost normal morphology was found in the brains of the LAU-0900-treated animals, indicating a high degree of protection. (Data not shown), even though administered 1 hr after the initiation of reperfusion.

T1 sequence (P21556 whole entry): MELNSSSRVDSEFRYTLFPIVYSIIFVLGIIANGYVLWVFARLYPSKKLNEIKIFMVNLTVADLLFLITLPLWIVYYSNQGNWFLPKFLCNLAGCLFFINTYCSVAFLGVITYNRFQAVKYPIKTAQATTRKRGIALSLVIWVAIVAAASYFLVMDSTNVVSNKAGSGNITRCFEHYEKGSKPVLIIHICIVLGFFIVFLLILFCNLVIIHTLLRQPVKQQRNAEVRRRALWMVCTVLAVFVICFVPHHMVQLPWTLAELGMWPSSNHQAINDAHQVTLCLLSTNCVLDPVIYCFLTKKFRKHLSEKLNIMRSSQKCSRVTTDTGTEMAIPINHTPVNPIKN
T2 sequence (P21556 whole entry): as above
Sequence of intracellular type PAF receptor (rat brain microsomal preparations) (P46002 whole entry): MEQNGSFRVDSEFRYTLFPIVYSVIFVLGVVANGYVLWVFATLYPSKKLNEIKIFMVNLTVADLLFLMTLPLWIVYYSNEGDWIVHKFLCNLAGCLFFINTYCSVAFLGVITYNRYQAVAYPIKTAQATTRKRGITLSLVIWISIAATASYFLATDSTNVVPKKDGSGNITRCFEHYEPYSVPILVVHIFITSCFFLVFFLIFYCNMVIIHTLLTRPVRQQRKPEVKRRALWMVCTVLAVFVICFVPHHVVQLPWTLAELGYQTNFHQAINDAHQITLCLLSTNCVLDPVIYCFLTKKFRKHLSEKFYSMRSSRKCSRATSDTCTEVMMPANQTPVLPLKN

Significance of 3H-PAF displacement ([2]; CHO-B cell homogenates) | IC50 ([2]; CHO-B homogenates (heavily overexpress PAF-R)) | KI ([3]; CHO-A homogenates) | IC50 ([3]; CHO-A homogenates (moderately express PAF-R)) | Structure (SMILES) | Competitive activity at 3H-PAF binding sites (curve profile) [1] | KI ([4]; CHO-C homogenates) | IC50 ([4]; CHO-C homogenates (do not express PAF-R)) | Inhibition of COX-2 transcription induced by PAF (human COX-2 promoter [5]) | Inhibition of COX-2 transcription induced by IL-1β (human COX-2 promoter [6]) | Inhibition of cryogenically induced COX-2 mRNA (COX-2 mRNA; 10 mg/kg intra-cerebroventricular 15 min before injury) | Duration of COX-2 mRNA inhibition after a single injection (COX-2 mRNA; 10 mg/kg intra-cerebroventricular) | Effect on accumulation of Evans Blue in brain cortex [7] | Reduction of infarcted volume [8] [%] | Protection from brain damage (Cresil-Violet histology) [9]
significant displacement | ~0.0538 nM and 0.0538 nM | No displacement | No displacement | COC(=O)C1=C(C)NC(C)=C(C(=O)OCCCSc2ccc(-n3ccnc3)cc2)C1C (stereo not shown) [LAU-0903, 2,4,6-Trimethyl-1,4-dihydro-pyridine-3,5-dicarboxylic acid 5-[3-(imidazol-1-yl-phenylsulphanyl)]-propyl-1-ester 3-methyl ester] | competitive activity at both binding sites | No displacement | No displacement | inhibited | inhibited | more than 50% | up to 6 hours | protective effect |  | 
 |  |  |  | COC(=O)C1=C(C)NC(C)=C(C(=O)OCCCOc2cc(OC)c(OC)c(OC)c2)C1C (stereo not shown) [LAU-0911, 2,4,6-Trimethyl-1,4-dihydro-pyridine-3,5-dicarboxylic acid 5-(3,4,5-trimethoxyphenoxy)-propyl-1-ester 3-methyl ester] |  |  |  | inhibited | inhibited |  |  |  | 40 | significant protection

From patent publication US6566359B1, “2,4,6-trimethyl-1,4-dihydro-pyridine-3,5-dicarboxylic acid esters as neuroprotective drugs” (Board of Supervisors of Louisiana State University and …, priority 2002, dated 2003)
